Patent US20210355105A1, “REGULATOR OF NITROGEN-CONTAINING HETEROAROMATIC DERIVATIVES, PREPARATION METHOD THEREFOR AND USE THEREOF” (Jiangsu Hansoh Pharmaceutical Group Co., Ltd., priority 2018, published 2021)

Legend:
hERG potassium channel = target: T1, hERG potassium channel (Homo sapiens, UniProt Q12809); assay: Inhibitory activity on hERG potassium channel (Qpatch, CHO-hERG cells); format: cell-based; settings: six concentrations up to 40 μM, read-out: hERG (inhibitory effect on hERG current)
T1 construct: expressed in transfected cells; host or cells: CHO-hERG cells
T1 sequence (Q12809 whole entry): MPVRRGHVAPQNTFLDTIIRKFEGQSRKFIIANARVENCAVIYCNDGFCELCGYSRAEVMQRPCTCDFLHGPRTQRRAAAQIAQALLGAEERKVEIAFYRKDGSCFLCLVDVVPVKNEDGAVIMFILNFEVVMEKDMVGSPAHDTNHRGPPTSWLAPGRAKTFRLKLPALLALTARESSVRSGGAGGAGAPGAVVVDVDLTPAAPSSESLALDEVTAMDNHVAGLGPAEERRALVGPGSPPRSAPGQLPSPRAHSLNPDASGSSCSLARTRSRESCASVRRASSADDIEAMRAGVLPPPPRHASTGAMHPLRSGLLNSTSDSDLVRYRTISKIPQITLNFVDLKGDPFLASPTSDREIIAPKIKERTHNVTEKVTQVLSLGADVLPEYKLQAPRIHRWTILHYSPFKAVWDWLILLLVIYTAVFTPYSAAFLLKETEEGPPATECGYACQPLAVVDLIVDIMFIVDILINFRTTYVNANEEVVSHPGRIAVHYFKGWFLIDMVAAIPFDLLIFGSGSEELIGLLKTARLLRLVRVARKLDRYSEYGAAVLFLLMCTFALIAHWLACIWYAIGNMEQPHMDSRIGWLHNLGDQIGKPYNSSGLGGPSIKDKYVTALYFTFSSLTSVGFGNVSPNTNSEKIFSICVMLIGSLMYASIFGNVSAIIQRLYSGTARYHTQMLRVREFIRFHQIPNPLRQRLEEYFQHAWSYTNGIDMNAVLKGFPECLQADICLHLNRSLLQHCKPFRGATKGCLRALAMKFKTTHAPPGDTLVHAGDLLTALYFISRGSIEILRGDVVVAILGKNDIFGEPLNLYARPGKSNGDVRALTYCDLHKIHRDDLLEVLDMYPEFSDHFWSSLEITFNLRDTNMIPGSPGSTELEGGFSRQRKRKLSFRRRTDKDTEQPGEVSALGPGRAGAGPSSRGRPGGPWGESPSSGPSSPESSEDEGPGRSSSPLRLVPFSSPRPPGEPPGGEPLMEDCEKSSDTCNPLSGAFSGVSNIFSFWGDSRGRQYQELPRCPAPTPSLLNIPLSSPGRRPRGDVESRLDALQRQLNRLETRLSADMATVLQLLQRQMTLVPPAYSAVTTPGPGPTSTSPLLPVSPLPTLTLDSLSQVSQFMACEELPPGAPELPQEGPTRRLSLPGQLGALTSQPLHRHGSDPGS
Procedure: 8.1.1 CHO-hERG cells were cultured in a 175 cm^2 culture flask. When the cells were grown to a density of 60 to 80%, the culture solution was removed, and the cells were washed once with 7 mL of PBS, and then 3 mL of Detachin was added for digestion of the cells.
8.1.2 After the digestion was complete, the cells were neutralized by adding 7 mL of the culture solution and then centrifuged. The supernatant was removed, and then 5 mL of the culture solution was added for resuspension to ensure a cell density of 2-5×10^6 cells/mL.
The single-cell high-impedance sealing and whole-cell pattern formation processes were both completed automatically by the Qpatch instrument. After the whole-cell recording pattern was obtained, the cells were clamped at −80 millivolts. A pre-voltage of −50 millivolts was applied for 50 milliseconds prior to the application of a depolarizing stimulus of +40 millivolts for 5 seconds, and then the cells were repolarized to −50 millivolts and maintained for 5 seconds, and then returned back to −80 millivolts. This voltage stimulation was applied every 15 seconds, and data were recorded for 2 minutes, and thereafter the extracellular fluid was administered and data were recorded for 5 minutes, and then the administration process was started. The compound was administered from the lowest test concentration, and 2.5 minutes were given for each test concentration. After all the concentrations of the compound were administered, […] Cisapride as a positive control compound was administered. At least three cells (n≥3) were tested for each concentration.
8.4.1 20 mM compound mother solution was diluted with the extracellular fluid. 5 μL of the 20 mM compound mother solution was diluted 500 times to 40 μM by adding 2495 μL of the extracellular fluid, and then 3-fold serial dilutions were performed sequentially in the extracellular fluid containing 0.2% DMSO to obtain a final concentration to be tested.
8.4.2 The highest test concentration was 40 μM, and there were six concentrations in total, i.e., 40, 13.33, 4.44, 1.48, 0.49, and […], respectively.
The experimental data were analyzed by XLFit software.

[1] = target: T2, SHP-2 full-length protein (Homo sapiens, UniProt Q06124); assay: Inhibition of SHP-2 kinase activity (Homogeneous Full Length SHP-2 Assay Kit); format: biochemical; settings: relative IC50, full-length SHP-2 with activating peptide
T2 construct: purchased BPS Bioscience 79330
T2 sequence (Q06124 1-593): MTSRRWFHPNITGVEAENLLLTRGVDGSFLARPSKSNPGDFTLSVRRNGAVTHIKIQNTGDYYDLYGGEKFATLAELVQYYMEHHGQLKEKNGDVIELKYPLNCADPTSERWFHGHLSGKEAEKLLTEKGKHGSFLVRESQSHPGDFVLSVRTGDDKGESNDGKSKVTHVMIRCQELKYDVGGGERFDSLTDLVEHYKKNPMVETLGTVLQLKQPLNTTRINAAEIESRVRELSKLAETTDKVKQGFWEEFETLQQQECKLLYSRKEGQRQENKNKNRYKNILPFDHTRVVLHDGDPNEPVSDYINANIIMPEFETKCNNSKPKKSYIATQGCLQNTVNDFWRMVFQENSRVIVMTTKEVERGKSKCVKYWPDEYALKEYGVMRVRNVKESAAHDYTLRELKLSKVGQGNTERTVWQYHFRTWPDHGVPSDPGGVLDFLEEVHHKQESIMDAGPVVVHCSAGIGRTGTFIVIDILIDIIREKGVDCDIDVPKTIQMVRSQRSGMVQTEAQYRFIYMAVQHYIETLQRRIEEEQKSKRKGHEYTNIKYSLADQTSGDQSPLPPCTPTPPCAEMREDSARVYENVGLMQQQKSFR
Procedure: The objective of this test is to determine the inhibitory effect of the compounds on SHP-2 full-length protein allosteric activity.
Experimental method: Homogeneous Full Length SHP-2 Assay Kit (BPS Bioscience, #79330) was used to determine the in vitro SHP-2 activity. First, 18 μL of Master Mix was added to a 96-well low adsorption microplate (NUNC, #267342), i.e., the reaction buffer with a final concentration of 1× comprised 0.5 μM SHP-2 activating Peptide and 5 mM DTT. After centrifugation, 5 μL of test compound/DMSO was added to each well (the final DMSO content was 1%, V/V, the test compound was dissolved in DMSO to 1 mM, a three-fold serial dilution was carried out to obtain ten concentrations, the final concentration of the reaction system ranged from 1 μM to 0.05 nM). SHP-2 was diluted in the 1× reaction buffer to a final concentration of 0.06 nM, and the resulting solution was added to the reaction microplate (2 μL per well). Full activity control (compound only with DMSO) and full inhibition control (no SHP-2) were set up on the reaction plate. After centrifugation, the reaction mixture was incubated at room temperature for 60 minutes.
After completion of the incubation, 25 μL of Substrate solution, which comprised Substrate with a final concentration of 10 μM and 5 mM DTT, was added to each well. After centrifugation, the reaction mixture was incubated at room temperature for 30 minutes. After completion of the reaction, readings were measured on the Synergy H1 full-function microplate reader (BioTek) (excitation wavelength: 340 nm, emission wavelength: […], gain value: 75).
The IC50 value of the test compounds was calculated by fitting the percentage inhibition rate and data of ten concentrations to a four-parameter nonlinear logic formula with GraphPad prism.

[2] = Pharmacokinetics assay in rats, oral administration; format: in vivo; settings: rat; male SD rats, oral 5 mg/kg, plasma
Procedure: SD rats were used as test animals.
5 g of hydroxyethyl cellulose (HEC, CMC-Na, viscosity: 800-1200 Cps) was dissolved in 1000 mL of purified water, and 10 g of Tween80 was added. The solution was mixed well to form a clear solution.
The solution was shaked well and subjected to ultrasound for 15 minutes to obtain a colorless and clear solution with a concentration of 0.5 mg/mL.
After an overnight fast, male SD rats (3 rats per group) were administrated orally with the test compounds at an administration dose of 5 mg/kg and an administration volume of 10 mL/kg.
0.2 mL of blood was taken from jugular vein before administration and at 0.5 hour, 1.0 hour, 2.0 hours, 4.0 hours, 6.0 hours, 8.0 hours and 24.0 hours after administration. The blood samples were stored in EDTA-2K tubes, and centrifuged for 6 minutes at 6000 rpm, at 4° C. to separate the blood plasma. The plasma samples were stored at −80° C. The rats were fed four hours after administration.

| IC50 [1] | AUC(0-inf) [2] | Cmax [2] | MRT [2] | Tmax [2] | half-life [2] | Compound | IC50 (hERG potassium channel) |
| --- | --- | --- | --- | --- | --- | --- | --- |
| 1.73 nM | 1780 ng·h/mL | 189 ng/mL | 5.78 h | 1 h | 3.69 h | Cc1nc(N2CCC3(CC2)Cc2ncsc2[C@H]3N)c(CO)nc1Sc1ccnc(N)c1Cl [Example 171, (S)-(6-((2-amino-3-chloropyridin-4-yl)thio)-3-(6-amino-4,6-dihydrospiro[cyclopenta[d]thiazole-5,4′-piperidin]-1′-yl)-5-methylpyrazin-2-yl)methanol] | 18800 nM |
| 1.75 nM | 3840 ng·h/mL | 201 ng/mL | 15.2 h | 2 h | 10.5 h | Nc1nc(N2CCC3(CC2)Cc2ccccc2[C@H]3N)c(F)nc1Sc1ccnc(N)c1Cl [Example 179, (S)-1′-(6-amino-5-((2-amino-3-chloropyridin-4-yl)thio)-3-fluoropyrazin-2-yl)-1,3-dihydrospiro[indene-2,4′-piperidin]-1-amine] | 4510 nM |
| 3.07 nM | 5890 ng·h/mL | 614 ng/mL | 5.84 h | 2 h | 3.55 h | Nc1nc(N2CCC3(CC2)Cc2ncsc2[C@H]3N)c(F)nc1Sc1ccnc(N)c1Cl [Example 181, (S)-1′-(6-amino-5-((2-amino-3-chloropyridin-4-yl)thio)-3-fluoropyrazin-2-yl)-4,6-dihydrospiro[cyclopenta[d]thiazole-5,4′-piperidin]-6-amine] | 21900 nM |

| Compound | IC50 [1] | AUC(0-inf) [2] | Cmax [2] | MRT [2] | Tmax [2] | half-life [2] | IC50 (hERG potassium channel) |
| --- | --- | --- | --- | --- | --- | --- | --- |
| Nc1nccc(Sc2cnc(N3CCC4(CC=C(C5CC5)[C@H]4N)CC3)cn2)c1Cl [Example 144, (S)-8-(5-((2-amino-3-chloropyridin-4-yl)thio)pyrazin-2-yl)-2-cyclopropyl-8-azaspiro[4.5]dec-2-en-1-amine] | 1.48 nM | 3310 ng·h/mL | 247 ng/mL | 9.24 h | 1 h | 6.49 h | 2340 nM |
